Assay results as given in the supplement of paper PMC10307832.

Columns and labels:
Assay in all cases: relative viability (nuclei count vs DMSO), 5 days (fraction); higher = more cells survive
H3255 = test system: H3255
Summary of the method: (§1)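 Lung cancer cell lines were pin-tool dosed in 1536-well plates on the day after seeding, with either a lone drug or a fixed anchor-drug dose plus five library-drug doses (not always all listed) in √10 steps. Nuclei were counted on 4× images after 5 days. Relative viability is the ratio of treated-well to vehicle-well nuclei counts, with each value a median of duplicate plates.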

NCI-H650 = test system: NCI-H650
Summary of the method: as §1

NCI-H2087 = test system: NCI-H2087
Summary of the method: as §1

NCI-H520 = test system: NCI-H520
Summary of the method: as §1

NCI-H2126 = test system: NCI-H2126
Summary of the method: as §1

NCI-H1915 = test system: NCI-H1915
Summary of the method: as §1

ChaGo-K-1 = test system: ChaGo-K-1
Summary of the method: as §1

NCI-H1666 = test system: NCI-H1666
Summary of the method: as §1

NCI-H661 = test system: NCI-H661
Summary of the method: as §1

EPLC-272H = test system: EPLC-272H
Summary of the method: as §1

PC-14 = test system: PC-14
Summary of the method: as §1

NCI-H322M = test system: NCI-H322M
Summary of the method: as §1

NCI-H23 = test system: NCI-H23
Summary of the method: as §1

RERF-LC-KJ = test system: RERF-LC-KJ
Summary of the method: as §1

COR-L 105 = test system: COR-L 105
Summary of the method: as §1

NCI-H2347 = test system: NCI-H2347
Summary of the method: as §1

HCC-78 = test system: HCC-78
Summary of the method: as §1

201T = test system: 201T
Summary of the method: as §1

HCC-827 = test system: HCC-827
Summary of the method: as §1

LCLC-97TM1 = test system: LCLC-97TM1
Summary of the method: as §1

NCI-H2405 = test system: NCI-H2405
Summary of the method: as §1

NCI-H647 = test system: NCI-H647
Summary of the method: as §1

LC-2-ad = test system: LC-2-ad
Summary of the method: as §1

Q: Which results are given for CC1(C)CCC(c2ccc(Cl)cc2)=C(CN2CCN(c3ccc(C(=O)NS(=O)(=O)c4ccc(N[C@H](CCN5CCOCC5)CSc5ccccc5)c(S(=O)(=O)C(F)(F)F)c4)cc3)CC2)C1 [Navitoclax] + CC(C)C[C@H](NC(=O)[C@H](Cc1ccccc1)NC(=O)c1cnccn1)B(O)O [Bortezomib] (partner 0.002 µM)?
A: relative viability (H3255; first compound 0.005 µM): 0.849; relative viability (H3255; first compound 0.01581 µM): 1.09; relative viability (H3255; first compound 0.05 µM): 0.836; relative viability (H3255; first compound 0.1581 µM): 0.692; relative viability (H3255; first compound 0.5 µM): 0.632; relative viability (NCI-H650; first compound 0.005 µM): 0.742; relative viability (NCI-H650; first compound 0.01581 µM): 0.959; relative viability (NCI-H650; first compound 0.05 µM): 0.817; relative viability (NCI-H650; first compound 0.1581 µM): 0.767; relative viability (NCI-H650; first compound 0.5 µM): 0.837; relative viability (NCI-H2087; first compound 0.005 µM): 0.905; relative viability (NCI-H2087; first compound 0.01581 µM): 0.979; relative viability (NCI-H2087; first compound 0.05 µM): 0.504; relative viability (NCI-H2087; first compound 0.1581 µM): 0.612; relative viability (NCI-H2087; first compound 0.5 µM): 0.772; relative viability (NCI-H520; first compound 0.005 µM): 0.577; relative viability (NCI-H520; first compound 0.01581 µM): 0.743; relative viability (NCI-H520; first compound 0.05 µM): 0.869; relative viability (NCI-H520; first compound 0.1581 µM): 0.6; relative viability (NCI-H520; first compound 0.5 µM): 0.712; relative viability (NCI-H2126; first compound 0.005 µM): 1.08; relative viability (NCI-H2126; first compound 0.01581 µM): 1.12; relative viability (NCI-H2126; first compound 0.05 µM): 1.07; relative viability (NCI-H2126; first compound 0.1581 µM): 1.12; relative viability (NCI-H2126; first compound 0.5 µM): 1.15; relative viability (NCI-H1915; first compound 0.005 µM): 0.969; relative viability (NCI-H1915; first compound 0.01581 µM): 0.925; relative viability (NCI-H1915; first compound 0.05 µM): 0.82; relative viability (NCI-H1915; first compound 0.1581 µM): 0.865; relative viability (NCI-H1915; first compound 0.5 µM): 0.929; relative viability (ChaGo-K-1; first compound 0.005 µM): 0.907; relative viability (ChaGo-K-1; first compound 0.01581 µM): 1.01; relative viability (ChaGo-K-1; first compound 0.05 µM): 0.91; relative viability (ChaGo-K-1; first compound 0.1581 µM): 0.959; relative viability (ChaGo-K-1; first compound 0.5 µM): 1.04; relative viability (NCI-H1666; first compound 0.005 µM): 0.791; relative viability (NCI-H1666; first compound 0.01581 µM): 0.825; relative viability (NCI-H1666; first compound 0.05 µM): 0.764; relative viability (NCI-H1666; first compound 0.1581 µM): 0.782; relative viability (NCI-H1666; first compound 0.5 µM): 0.805; relative viability (NCI-H661; first compound 0.005 µM): 0.844; relative viability (NCI-H661; first compound 0.01581 µM): 0.873; relative viability (NCI-H661; first compound 0.05 µM): 0.785; relative viability (NCI-H661; first compound 0.1581 µM): 0.827; relative viability (NCI-H661; first compound 0.5 µM): 0.668; relative viability (EPLC-272H; first compound 0.005 µM): 0.925; relative viability (EPLC-272H; first compound 0.1581 µM): 0.988; relative viability (EPLC-272H; first compound 0.5 µM): 0.887; relative viability (PC-14; first compound 0.005 µM): 0.876; relative viability (PC-14; first compound 0.01581 µM): 1; relative viability (PC-14; first compound 0.05 µM): 0.934; relative viability (PC-14; first compound 0.1581 µM): 0.865; relative viability (PC-14; first compound 0.5 µM): 0.86; relative viability (NCI-H322M; first compound 0.005 µM): 1.21; relative viability (NCI-H322M; first compound 0.01581 µM): 1.33; relative viability (NCI-H322M; first compound 0.05 µM): 1.38; relative viability (NCI-H322M; first compound 0.1581 µM): 1.21; relative viability (NCI-H322M; first compound 0.5 µM): 1.22; relative viability (NCI-H23; first compound 0.005 µM): 0.894; relative viability (NCI-H23; first compound 0.01581 µM): 1.3; relative viability (NCI-H23; first compound 0.05 µM): 1.24; relative viability (NCI-H23; first compound 0.1581 µM): 1.02; relative viability (NCI-H23; first compound 0.5 µM): 1.02; relative viability (RERF-LC-KJ; first compound 0.005 µM): 1.07; relative viability (RERF-LC-KJ; first compound 0.01581 µM): 1.14; relative viability (RERF-LC-KJ; first compound 0.05 µM): 1; relative viability (RERF-LC-KJ; first compound 0.1581 µM): 1.09; relative viability (RERF-LC-KJ; first compound 0.5 µM): 1.35; relative viability (COR-L 105; first compound 0.005 µM): 0.977; relative viability (COR-L 105; first compound 0.01581 µM): 1.31; relative viability (COR-L 105; first compound 0.05 µM): 0.712; relative viability (COR-L 105; first compound 0.1581 µM): 0.875; relative viability (COR-L 105; first compound 0.5 µM): 0.584; relative viability (NCI-H2347; first compound 0.005 µM): 1.71; relative viability (NCI-H2347; first compound 0.05 µM): 0.812; relative viability (NCI-H2347; first compound 0.1581 µM): 1.03; relative viability (NCI-H2347; first compound 0.5 µM): 1.09; relative viability (HCC-78; first compound 0.005 µM): 0.582; relative viability (HCC-78; first compound 0.01581 µM): 0.611; relative viability (HCC-78; first compound 0.05 µM): 0.404; relative viability (HCC-78; first compound 0.1581 µM): 0.45; relative viability (HCC-78; first compound 0.5 µM): 0.469; relative viability (201T; first compound 0.005 µM): 1.16; relative viability (201T; first compound 0.01581 µM): 1.13; relative viability (201T; first compound 0.05 µM): 1; relative viability (201T; first compound 0.1581 µM): 1.1; relative viability (201T; first compound 0.5 µM): 1.1; relative viability (HCC-827; first compound 0.005 µM): 1.02; relative viability (HCC-827; first compound 0.01581 µM): 1.21; relative viability (HCC-827; first compound 0.05 µM): 0.87; relative viability (HCC-827; first compound 0.1581 µM): 1.08; relative viability (HCC-827; first compound 0.5 µM): 0.999; relative viability (LCLC-97TM1; first compound 0.005 µM): 0.696; relative viability (LCLC-97TM1; first compound 0.01581 µM): 1.06; relative viability (LCLC-97TM1; first compound 0.05 µM): 0.583; relative viability (LCLC-97TM1; first compound 0.1581 µM): 0.6; relative viability (LCLC-97TM1; first compound 0.5 µM): 0.513; relative viability (NCI-H2405; first compound 0.005 µM): 0.975; relative viability (NCI-H2405; first compound 0.01581 µM): 1.09; relative viability (NCI-H2405; first compound 0.05 µM): 0.816; relative viability (NCI-H2405; first compound 0.1581 µM): 0.974; relative viability (NCI-H2405; first compound 0.5 µM): 0.906; relative viability (NCI-H647; first compound 0.005 µM): 0.686; relative viability (NCI-H647; first compound 0.01581 µM): 1.22; relative viability (NCI-H647; first compound 0.05 µM): 0.866; relative viability (NCI-H647; first compound 0.1581 µM): 0.761; relative viability (NCI-H647; first compound 0.5 µM): 0.863; relative viability (LC-2-ad; first compound 0.005 µM): 0.988; relative viability (LC-2-ad; first compound 0.01581 µM): 1.1; relative viability (LC-2-ad; first compound 0.05 µM): 0.941; relative viability (LC-2-ad; first compound 0.1581 µM): 1.01; relative viability (LC-2-ad; first compound 0.5 µM): 1.06
